≈ marks a conversion by molar mass, not a printed value.
How the values were obtained:
Assay type in all cases: cell-based
[1] = tested on: Pseudomonas aeruginosa (r = resistant); assay: MIC determination by microdilution in liquid medium, Pse aer r; details: read-out: MIC Pse aer r
[2] = tested on: Pseudomonas aeruginosa (s = susceptible); assay: MIC determination by microdilution in liquid medium, Pse aer s; details: susceptible strain
E. coli ATCC 25922 = assay: MIC determination by microdilution in liquid medium, E. coli ATCC 25922; details: Escherichia coli, ATCC25922
Escherichia coli = assay: MIC determination by microdilution in liquid medium, E coli
[3] = tested on: Staphylococcus aureus (r = resistant); assay: MIC determination by microdilution in liquid medium, Sta aur r; details: read-out: MIC Sta aur r
[4] = tested on: Mannheimia haemolytica (s = susceptible); assay: MIC determination by microdilution in liquid medium, Man hae s; details: susceptible strain
[5] = tested on: Bordetella bronchiseptica; assay: MIC determination by microdilution in liquid medium, Bor bron
Streptococcus uberis = assay: MIC determination by microdilution in liquid medium, Str ube
[6] = tested on: Staphylococcus aureus (s = susceptible); assay: MIC determination by microdilution in liquid medium, Sta aur s; details: susceptible strain
[7] = tested on: Mannheimia haemolytica (r = resistant); assay: MIC determination by microdilution in liquid medium, Man hae r; details: resistant strain
M. bovirhinis = assay: MIC determination by microdilution in liquid medium, M. bovirhinis; details: Mycoplasma
Mycoplasma bovis = assay: MIC determination by microdilution in liquid medium, Myc bov; details: Mycoplasmopsis bovis
Clostridium perfringens = assay: microbe, parasite or virus in culture; details: read-out: MIC Clo per
E. faecalis ATCC 29212 = assay: MIC determination by microdilution in liquid medium, E. faecalis ATCC 29212; details: Enterococcus faecalis, ATCC29212, read-out: MIC E. fae-calis ATCC 29212

| SMILES | MIC [1] [µg/mL] | MIC [2] [µg/mL] | MIC (E. coli ATCC 25922) [µg/mL] | MIC (Escherichia coli) [µg/mL] | MIC [3] [µg/mL] | MIC [4] [µg/mL] | MIC [5] [µg/mL] | MIC (Streptococcus uberis) [µg/mL] | MIC [6] [µg/mL] | MIC [7] [µg/mL] | MIC (M. bovirhinis) [µg/mL] | MIC (Mycoplasma bovis) [µg/mL] | MIC (Clostridium perfringens) [µg/mL] | MIC (E. faecalis ATCC 29212) [µg/mL] |
| --- | --- | --- | --- | --- | --- | --- | --- | --- | --- | --- | --- | --- | --- | --- |
| CN1COc2c(N3C[C@@H](N)C(C)(C)C3)c(F)cc3c(=O)c(C(=O)O)cn1c23 [Example 34, 9-((S)-4-Amino-3,3-dimethyl-pyrrolidin-1-yl)-8-fluoro-3-methyl-6-oxo-2,3-dihydro-6H-1-oxa-3,3a-diaza-phenalene-5-carboxylic acid] | 8 (≈ 21.3 µM) | 0.5 (≈ 1.33 µM) | 0.03 (≈ 0.0797 µM) | 0.03 (≈ 0.0797 µM) | 2 (≈ 5.31 µM) | 0.03 (≈ 0.0797 µM) | 0.5 (≈ 1.33 µM) | 0.12 (≈ 0.319 µM) | < 0.03 | 8 (≈ 21.3 µM) | 0.12 (≈ 0.319 µM) | 0.5 (≈ 1.33 µM) | < 0.03 | 0.25 to 0.5 (≈ 0.664 to 1.33 µM) |
| CN1COc2c(N3CCC(C(N)c4nccs4)C3)c(F)cc3c(=O)c(C(=O)O)cn1c23 (stereo not shown) [Example 39, 9-[3-(Amino-thiazol-2-yl-methyl)-pyrrolidin-1-yl]-8-fluoro-3-methyl-6-oxo-2,3-dihydro-6H-1-oxa-3,3a-diaza-phenalene-5-carboxylic acid] | 16 (≈ 35.9 µM) | 2 (≈ 4.49 µM) | 0.03 to 0.12 (≈ 0.0673 to 0.269 µM) | 0.25 (≈ 0.561 µM) | 2 (≈ 4.49 µM) | 0.03 (≈ 0.0673 µM) | 0.5 (≈ 1.12 µM) | 0.12 (≈ 0.269 µM) | ≤ 0.03 | 16 (≈ 35.9 µM) | 0.06 (≈ 0.135 µM) | 0.12 (≈ 0.269 µM) | ≤ 0.03 | 0.12 (≈ 0.269 µM) |
| CN1COc2c(N3CCC(Nc4ccccn4)C3)c(F)cc3c(=O)c(C(=O)O)cn1c23 (stereo not shown) [Example 8] | > 32 | 8 (≈ 18.8 µM) | 0.12 (≈ 0.282 µM) | 0.5 (≈ 1.18 µM) | 4 (≈ 9.4 µM) | 0.25 (≈ 0.588 µM) | > 1 | 0.25 (≈ 0.588 µM) | 0.06 (≈ 0.141 µM) | 32 (≈ 75.2 µM) | 0.06 (≈ 0.141 µM) | 0.06 (≈ 0.141 µM) | < 0.03 | 0.25 (≈ 0.588 µM) |
| CN1COc2c(N3CCC(CNc4cnccn4)C3)c(F)cc3c(=O)c(C(=O)O)cn1c23 (stereo not shown) [Example 1, 8-fluoro-3-methyl-6-oxo-9-[3-(pyrazin-2-ylaminomethyl)-pyrrolidin-1-yl]-2,3-dihydro-6H-1-oxa-3,3a-diaza-phenalene-5-carboxylic acid] | 16 (≈ 36.3 µM) | 8 (≈ 18.2 µM) | 0.12 (≈ 0.272 µM) | 0.25 (≈ 0.568 µM) | 0.5 (≈ 1.14 µM) | 0.06 (≈ 0.136 µM) | 0.5 (≈ 1.14 µM) | < 0.03 | < 0.03 | 16 (≈ 36.3 µM) | 0.06 (≈ 0.136 µM) | < 0.03 | 0.06 (≈ 0.136 µM) | ≤ 0.03 |
| CN1COc2c(N3CCC(Nc4nncs4)C3)c(F)cc3c(=O)c(C(=O)O)cn1c23 (stereo not shown) [Example 10, 8-Fluoro-3-methyl-6-oxo-9-[3-([1,3,4]thiadiazol-2-ylamino)-pyrrolidin-1-yl]-2,3-dihydro-6H1-oxa-3,3a-diaza-phenalene-5-carboxylic acid] | > 32 | 4 (≈ 9.25 µM) | 1 (≈ 2.31 µM) | 0.25 (≈ 0.578 µM) | 4 (≈ 9.25 µM) | 0.03 (≈ 0.0694 µM) | 2 (≈ 4.62 µM) | < 0.03 | < 0.03 | > 32 | 2 (≈ 4.62 µM) | 0.12 (≈ 0.277 µM) | < 0.03 | 0.25 (≈ 0.578 µM) |
| CN1COc2c(N3CC[C@H](NC(=O)C(F)(F)F)C3)c(F)cc3c(=O)c(C(=O)O)cn1c23 [Example 28, 8-Fluoro-3-methyl-6-oxo-9-[(S)-3-(2,2,2-trifluoro-acetylamino)-pyrrolidin-1-yl]-2,3-dihydro-6H-1-oxa-3,3a-diaza-phenalene-5-carboxylic acid] | 1 (≈ 2.25 µM) | 0.06 (≈ 0.135 µM) | 0.03 (≈ 0.0675 µM) | 0.03 (≈ 0.0675 µM) | 4 (≈ 9 µM) | 0.008 (≈ 0.018 µM) | 1 (≈ 2.25 µM) | 0.25 (≈ 0.563 µM) | 0.12 (≈ 0.27 µM) | 4 (≈ 9 µM) |  | 1 (≈ 2.25 µM) | 0.12 (≈ 0.27 µM) | 1 to 2 (≈ 2.25 to 4.5 µM) |
| CN1COc2c(N3CC[C@@H](Nc4nccs4)C3)c(F)cc3c(=O)c(C(=O)O)cn1c23 [Example 19, 8-Fluoro-3-methyl-6-oxo-9-[(R)-3-(thiazol-2-ylamino)-pyrrolidin-1-yl]-2,3-dihydro-6H-1-oxa-3,3a-diaza-phenalene-5-carboxylic acid] | 8 (≈ 18.5 µM) | 2 (≈ 4.64 µM) | 0.25 (≈ 0.579 µM) | 0.06 (≈ 0.139 µM) | 0.25 (≈ 0.579 µM) | 0.03 (≈ 0.0695 µM) | 0.12 (≈ 0.278 µM) | < 0.03 | < 0.03 | 8 (≈ 18.5 µM) | 0.25 (≈ 0.579 µM) | < 0.03 | < 0.03 | 0.06 (≈ 0.139 µM) |
| CN1COc2c(N3CCC(C(O)c4nccs4)C3)c(F)cc3c(=O)c(C(=O)O)cn1c23 (stereo not shown) [Example 38, 8-Fluoro-9-[3-(hydroxy-thiazol-2-yl-methyl)-pyrrolidin-1-yl]-3-methyl-6-oxo-2,3-dihydro-6H-1-oxa-3,3a-diaza-phenalene-5-carboxylic acid] | 32 (≈ 71.7 µM) | 4 (≈ 8.96 µM) | 0.12 (≈ 0.269 µM) | 0.12 (≈ 0.269 µM) | 2 (≈ 4.48 µM) | 0.03 (≈ 0.0672 µM) | 1 (≈ 2.24 µM) | < 0.03 | 0.06 (≈ 0.134 µM) | 16 (≈ 35.8 µM) | 0.25 (≈ 0.56 µM) | 0.12 (≈ 0.269 µM) | < 0.03 | 0.06 (≈ 0.134 µM) |
| CN1COc2c(N3CC[C@@H](NC(=O)C(F)(F)F)C3)c(F)cc3c(=O)c(C(=O)O)cn1c23 [Example 29, 8-Fluoro-3-methyl-6-oxo-9-[(R)-3-(2,2,2-trifluoro-acetylamino)-pyrrolidin-1-yl]-2,3-dihydro-6H-1-oxa-3,3a-diaza-phenalene-5-carboxylic acid] | 4 (≈ 9 µM) | 0.25 (≈ 0.563 µM) | 0.06 (≈ 0.135 µM) | 0.06 (≈ 0.135 µM) | 8 (≈ 18 µM) | 0.03 (≈ 0.0675 µM) | > 1 | 0.5 (≈ 1.13 µM) | 0.12 (≈ 0.27 µM) | 8 (≈ 18 µM) | 1 (≈ 2.25 µM) | 0.5 (≈ 1.13 µM) | 0.25 (≈ 0.563 µM) | 1 to 2 (≈ 2.25 to 4.5 µM) |
| CN1COc2c(N3C[C@H](N)C(C)(C)C3)c(F)cc3c(=O)c(C(=O)O)cn1c23 [Example 35, 9-((R)-4-Amino-3,3-dimethyl-pyrrolidin-1-yl)-8-fluoro-3-methyl-6-oxo-2,3-dihydro-6H-1-oxa-3,3a-diaza-phenalene-5-carboxylic acid] | 8 (≈ 21.3 µM) | 0.5 (≈ 1.33 µM) | 0.03 (≈ 0.0797 µM) | 0.06 (≈ 0.159 µM) | 2 (≈ 5.31 µM) | 0.06 (≈ 0.159 µM) | 1 (≈ 2.66 µM) | 0.12 (≈ 0.319 µM) | 0.06 (≈ 0.159 µM) | 8 (≈ 21.3 µM) |  | 0.5 (≈ 1.33 µM) | 0.12 (≈ 0.319 µM) | 0.25 (≈ 0.664 µM) |
| CN1COc2c(N3CC(N)C(C)(C)C3)c(F)cc3c(=O)c(C(=O)O)cn1c23 (racemic) [Example 33, 9-((R,S)-4-Amino-3,3-dimethyl-pyrrolidin-1-yl)-8-fluoro-3-methyl-6-oxo-2,3-dihydro-6H-1-oxa-3,3a-diaza-phenalene-5-carboxylic acid] | 8 (≈ 21.3 µM) | 0.5 (≈ 1.33 µM) | 0.03 (≈ 0.0797 µM) | 0.06 (≈ 0.159 µM) | 2 (≈ 5.31 µM) | 0.06 (≈ 0.159 µM) | 0.5 (≈ 1.33 µM) | 0.12 (≈ 0.319 µM) | < 0.03 | 8 (≈ 21.3 µM) | 0.25 (≈ 0.664 µM) | 0.5 (≈ 1.33 µM) | 0.06 (≈ 0.159 µM) |  |
| CN1COc2c(N3CC[C@H](Nc4nccs4)C3)c(F)cc3c(=O)c(C(=O)O)cn1c23 [Example 18, 8-Fluoro-3-methyl-6-oxo-9-[(S)-3-(thiazol-2-ylamino)-pyrrolidin-1-yl]-2,3dihydro-6H-1-oxa-3,3a-diaza-phenalene-5-carboxylic acid] | 32 (≈ 74.2 µM) | 4 (≈ 9.27 µM) | 0.06 (≈ 0.139 µM) | 0.5 (≈ 1.16 µM) | 4 (≈ 9.27 µM) | 0.12 (≈ 0.278 µM) | 0.25 (≈ 0.579 µM) | 0.25 (≈ 0.579 µM) | < 0.03 | > 32 | ≤ 0.03 | 0.25 (≈ 0.579 µM) | 0.06 (≈ 0.139 µM) | ≤ 0.03 |
| CN1COc2c(N3CCC(Nc4cnccn4)C3)c(F)cc3c(=O)c(C(=O)O)cn1c23 (stereo not shown) [Example 7] | 16 (≈ 37.5 µM) | 2 (≈ 4.69 µM) | 0.25 (≈ 0.586 µM) | 0.25 (≈ 0.586 µM) | 0.5 (≈ 1.17 µM) | 0.06 (≈ 0.141 µM) | 0.5 (≈ 1.17 µM) | 0.06 (≈ 0.141 µM) | < 0.03 | 16 (≈ 37.5 µM) | 0.06 (≈ 0.141 µM) | < 0.03 | 0.06 (≈ 0.141 µM) | ≤ 0.03 |
| CN1COc2c(N3CCC(NC(=O)C(F)(F)F)C3)c(F)cc3c(=O)c(C(=O)O)cn1c23 (stereo not shown) [Example 27, 8-Fluoro-3-methyl-6-oxo-9-[3-(2,2,2-trifluoro-acetylamino)-pyrrolidin-1-yl]-2,3-dihydro-6H-1-oxa-3,3a-diaza-phenalene-5-carboxylic acid] | 2 (≈ 4.5 µM) | 0.06 (≈ 0.135 µM) | 0.03 (≈ 0.0675 µM) | 0.03 (≈ 0.0675 µM) | 8 (≈ 18 µM) | 0.008 (≈ 0.018 µM) | 2 (≈ 4.5 µM) | 0.25 (≈ 0.563 µM) | 0.12 (≈ 0.27 µM) | 4 (≈ 9 µM) | 1 (≈ 2.25 µM) | 1 (≈ 2.25 µM) | 0.25 (≈ 0.563 µM) | 2 (≈ 4.5 µM) |

— US7713965B2, “7-substituted 3-carboxy-oxadiazino-quinolone derivatives, their preparation and their application as anti-bacterials” (Vetoquinol SA, priority 2008, dated 2010)
